# Values quoted from earlier work in US8986935B2, “Methods for treating spinal muscular atrophy” (PTC Therapeutics, Inc., priority 2008, dated 2015).
# System: SMN protein
structure (smiles),measurement,value
CC[C@@]1(O)C[C@H](O[C@H]2C[C@H](N(C)C)[C@H](O[C@H]3C[C@H](O)[C@H](O[C@H]4CCC(=O)[C@H](C)O4)[C@H](C)O3)[C@H](C)O2)c2c(cc3c(c2O)C(=O)c2c(O)cccc2C3=O)[C@H]1C(=O)OC [aclarubicin],SMN protein in cell culture,increase SMN protein
